pIC50: −log10 of the molar value. Activity calls are given as the source filed them. The calls are words filed in the database; no cut-off is given here.
What was measured:
[1] = target: Photosystem II protein D1 (Spinacia oleracea) (UniProt P69560); assay: Inhibition of Spinacia oleracea (spinach) photosystem II assessed as light-induced re-reduction of Cyt-f at 100 uM added prior to illumination by dual wavelength spectrophotometer analysis
[2] = target: T1, Photosystem I iron-sulfur center (Spinacia oleracea) (UniProt P10098); assay: Inhibition of Spinacia oleracea (spinach) photosystem I assessed as light-induced oxidation of Cyt-f at 100 uM added prior to illumination by dual wavelength spectrophotometer analysis
T1 sequence (whole entry): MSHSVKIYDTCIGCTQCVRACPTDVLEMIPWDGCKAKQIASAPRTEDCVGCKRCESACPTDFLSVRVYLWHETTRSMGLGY

[3] = target: T2, Photosystem II protein D1 (Spinacia oleracea, UniProt P69560); assay: Inhibition of Spinacia oleracea (spinach) photosystem II assessed as electron flow from H20 to PDOX after 1 hr by polarographically
[4] = target: Photosystem II protein D1 (Spinacia oleracea) (UniProt P69560); assay: Inhibition of Spinacia oleracea (spinach) photosystem II assessed as electron flow from H20 to PDOX at 300 uM after 1 hr by polarographically
[5] = target: T1, Photosystem I iron-sulfur center (Spinacia oleracea); assay: Inhibition of Spinacia oleracea (spinach) photosystem I assessed as electron flow from ascorbate/DAD to methylviologen at >200 uM after 1 hr by polarographically
[6] = Inhibition of Spinacia oleracea (spinach) chloroplast electron transport chain assessed as electron flow from water to ferricyanide by polarographically
Spinacia oleracea [7] = assay: Inhibition of Spinacia oleracea (spinach) chloroplast electron transport chain-mediated rate of oxygen evolution per mg of chloroplast at 125 uM preincubated with DTT in dark condition for 5 min presence of 0.31 mM DTT
Spinacia oleracea [8] = assay: Inhibition of Spinacia oleracea (spinach) chloroplast electron transport chain-mediated rate of oxygen evolution per mg of chloroplast at 125 uM
Spinacia oleracea [9] = assay: Inhibition of Spinacia oleracea (spinach) chloroplast electron transport chain-mediated rate of oxygen evolution per mg of chloroplast at 125 uM in presence of 0.31 mM DTT
Spinacia oleracea [10] = assay: Inhibition of Spinacia oleracea (spinach) chloroplast electron transport chain-mediated rate of oxygen evolution per mg of chloroplast at 62.5 uM
Spinacia oleracea [11] = assay: Inhibition of Spinacia oleracea (spinach) chloroplast electron transport chain-mediated rate of oxygen evolution per mg of chloroplast at 62.5 uM in presence of 0.31 mM DTT
Spinacia oleracea [12] = assay: Inhibition of Spinacia oleracea (spinach) chloroplast electron transport chain-mediated sulfhydryl-induced ATP-Pi exchange assessed as inorganic phosphate release at 200 uM treated during activation stage
Spinacia oleracea [13] = assay: Inhibition of Spinacia oleracea (spinach) chloroplast electron transport chain-mediated sulfhydryl-induced ATP-Pi exchange assessed as inorganic phosphate release at 200 uM treated during incubation stage
[14] = Inhibition of Spinacia oleracea (spinach) chloroplast electron transport chain-mediated Mg2+-ATPase activity assessed as inorganic phosphate release
Spinacia oleracea [15] = assay: Inhibition of Spinacia oleracea (spinach) chloroplast electron transport chain-mediated light-induced ATP-Pi exchange assessed as inorganic phosphate release at 200 uM treated during incubation stage
Spinacia oleracea [16] = assay: Inhibition of Spinacia oleracea (spinach) chloroplast electron transport chain-mediated light-induced ATP-Pi exchange assessed as inorganic phosphate release at 200 uM treated during activation stage
Spinacia oleracea [17] = assay: Inhibition of Spinacia oleracea (spinach) chloroplast electron transport chain-mediated sulfhydryl-induced ATP-Pi exchange assessed as inorganic phosphate release at 200 uM
Spinacia oleracea [18] = assay: Inhibition of Spinacia oleracea (spinach) chloroplast electron transport chain-mediated light-induced ATP-Pi exchange assessed as inorganic phosphate release at 200 uM
[19] = Inhibition of Spinacia oleracea (spinach) chloroplast electron transport chain-mediated sulfhydryl-induced ATP-Pi exchange assessed as inorganic phosphate release
[20] = Inhibition of Spinacia oleracea (spinach) chloroplast electron transport chain-mediated light-induced ATP-Pi exchange assessed as inorganic phosphate release
Spinacia oleracea [21] = assay: Inhibition of Spinacia oleracea (spinach) chloroplast electron transport chain-mediated DAD-induced cyclic phosphorylation at 200 uM by polarographically
Spinacia oleracea [22] = assay: Inhibition of Spinacia oleracea (spinach) chloroplast electron transport chain-mediated DAD-induced cyclic phosphorylation at 100 uM by polarographically
Spinacia oleracea [23] = assay: Inhibition of Spinacia oleracea (spinach) chloroplast electron transport chain-mediated DAD-induced cyclic phosphorylation at 50 uM by polarographically
Spinacia oleracea [24] = assay: Inhibition of Spinacia oleracea (spinach) chloroplast electron transport chain-mediated DAD-induced cyclic phosphorylation at 25 uM by polarographically
Spinacia oleracea [25] = assay: Inhibition of Spinacia oleracea (spinach) chloroplast electron transport chain-mediated DAD-induced cyclic phosphorylation at 10 uM by polarographically
Spinacia oleracea [26] = assay: Inhibition of Spinacia oleracea (spinach) chloroplast electron transport chain-mediated PMS-induced cyclic phosphorylation at 200 uM […]
Spinacia oleracea [27] = assay: Inhibition of Spinacia oleracea (spinach) chloroplast electron transport chain-mediated PMS-induced cyclic phosphorylation at 100 uM by polarographically
Spinacia oleracea [28] = assay: Inhibition of Spinacia oleracea (spinach) chloroplast electron transport chain-mediated PMS-induced cyclic phosphorylation at 50 uM […]
Spinacia oleracea [29] = assay: Inhibition of Spinacia oleracea (spinach) chloroplast electron transport chain-mediated PMS-induced cyclic phosphorylation at 25 uM […]
Spinacia oleracea [30] = assay: Inhibition of Spinacia oleracea (spinach) chloroplast electron transport chain-mediated PMS-induced cyclic phosphorylation at 10 uM by polarographically
[31] = Inhibition of Spinacia oleracea (spinach) chloroplast electron transport chain-mediated PMS-induced cyclic phosphorylation […]
[32] = target: T2, Photosystem II protein D1; assay: Inhibition of Spinacia oleracea (spinach) photosystem II mediated noncyclic photophosphorylation assessed as 32P-orthophosphate incorporation into ATP […]
[33] = Inhibition of Spinacia oleracea (spinach) chloroplast electron transport chain-mediated noncyclic photophosphorylation assessed as 32P-orthophosphate incorporation into ATP […]
[34] = target: Photosystem II protein D1 (Spinacia oleracea) (UniProt P69560); assay: Inhibition of Spinacia oleracea (spinach) photosystem II assessed as light-induced re-reduction of Cyt-f at 200 uM added prior to illumination by dual wavelength spectrophotometer analysis
[35] = target: T1, Photosystem I iron-sulfur center (Spinacia oleracea); assay: Inhibition of Spinacia oleracea (spinach) photosystem I assessed as light-induced oxidation of Cyt-f at 200 uM added prior to illumination by dual wavelength spectrophotometer analysis
Spinacia oleracea [36] = assay: Inhibition of Spinacia oleracea (spinach) chloroplast electron transport chain assessed as residual activity of noncyclic electron flow using methylviologen as acceptor up to 300 uM by polarographically relative to control
[37] = Inhibition of Spinacia oleracea (spinach) chloroplast electron transport chain-mediated noncyclic electron flow using methylviologen as acceptor by polarographically
Spinacia oleracea [38] = assay: Inhibition of Spinacia oleracea (spinach) chloroplast electron transport chain assessed as residual electron flow from water to ferricyanide up to 300 uM by polarographically relative to control
Spinacia oleracea [39] = assay: Inhibition of Spinacia oleracea (spinach) chloroplast electron transport chain-mediated rate of oxygen evolution per mg of chloroplast at 62.5 uM preincubated with DTT in dark condition for 5 min presence of 0.31 mM DTT
Spinacia oleracea [40] = assay: Inhibition of Spinacia oleracea (spinach) chloroplast electron transport chain-mediated DAD-induced cyclic phosphorylation up to 200 uM by polarographically in presence of ascorbate in red light
Spinacia oleracea [41] = assay: Inhibition of Spinacia oleracea (spinach) chloroplast electron transport chain-mediated DAD-induced cyclic phosphorylation up to 200 uM by polarographically in absence of DCMU in red light
Spinacia oleracea [42] = assay: Inhibition of Spinacia oleracea (spinach) chloroplast electron transport chain-mediated DAD-induced cyclic phosphorylation up to 200 uM by polarographically in absence of DCMU in white light
[43] = target: Photosystem II protein D1 (Spinacia oleracea) (UniProt P69560); assay: Inhibition of Spinacia oleracea (spinach) photosystem II mediated noncyclic photophosphorylation assessed as 32P-orthophosphate incorporation into ATP up to 300 uM by polarographically
[44] = target: T1, Photosystem I iron-sulfur center (Spinacia oleracea); assay: Inhibition of Spinacia oleracea (spinach) photosystem I mediated noncyclic photophosphorylation assessed as 32P-orthophosphate incorporation into ATP up to 300 uM […]

Compound	inhibition [5]	pIC50 [6]	Activity (Spinacia oleracea [10]) [µmol/h]	Activity (Spinacia oleracea [11]) [µmol/h]	inhibition (Spinacia oleracea [12])	inhibition (Spinacia oleracea [13])	pIC50 [14]	inhibition (Spinacia oleracea [15])	inhibition (Spinacia oleracea [16])	inhibition (Spinacia oleracea [17])	inhibition (Spinacia oleracea [18])	pIC50 [19]	pIC50 [20]	inhibition (Spinacia oleracea [21]) [%]	inhibition (Spinacia oleracea [22]) [%]	inhibition (Spinacia oleracea [23]) [%]	inhibition (Spinacia oleracea [24]) [%]	inhibition (Spinacia oleracea [25]) [%]	inhibition (Spinacia oleracea [26]) [%]	inhibition (Spinacia oleracea [27]) [%]	also measured
CC(C)N(C(=O)SC/C(Cl)=C/Cl)C(C)C [Diallate]	inactive	4.70	105	97	Active	Active	4.19	Active	Active	Active	Active	4.70	4.70	32	20	48	32	8	66	52	inhibition [1]: Active; inhibition [2]: inactive; pIC50 [3]: 4.12; inhibition [4]: Active; Activity (Spinacia oleracea [7]): 30 µmol/h; Activity (Spinacia oleracea [8]): 40 µmol/h; Activity (Spinacia oleracea [9]): 30 µmol/h; inhibition (Spinacia oleracea [28]): 54%; inhibition (Spinacia oleracea [29]): 25%; inhibition (Spinacia oleracea [30]): 8%; pIC50 [31]: 4.30; pIC50 [32]: 4.00; pIC50 [33]: 4.60
CCCN(CCC)c1c([N+](=O)[O-])cc(C(F)(F)F)cc1[N+](=O)[O-] [TRIFLURALIN]	inactive	5.00	62	64	Active	Active	4.05	Active	Active	Active	Active	4.70	4.70	6	17	28	24	6	20	16	inhibition [34]: Active; inhibition [35]: inactive; Imax [4]: 50%; Activity (Spinacia oleracea [36]): 10%; pIC50 [37]: 5.00; Activity (Spinacia oleracea [38]): 10%; Activity (Spinacia oleracea [39]): 60 µmol/h; inhibition (Spinacia oleracea [40]): Active; inhibition (Spinacia oleracea [41]): Active; inhibition (Spinacia oleracea [42]): Active; inhibition (Spinacia oleracea [28]): 18%; inhibition (Spinacia oleracea [29]): 16%; inhibition (Spinacia oleracea [30]): 4%; inhibition [43]: inactive; inhibition [44]: inactive; pIC50 [33]: 4.30
